Experimental data from publication PMC10649927, “Integration of Deep Learning and Sequential Metabolism to Rapidly Screen Dipeptidyl Peptidase (DPP)-IV Inhibitors from Gardenia jasminoides Ellis” (Molecules, 2023).

The compounds below were run against T1, human recombinant DPP-IV (Homo sapiens, UniProt P27487) (assay: Gly-Pro-pNA hydrolysis, absorbance at […] nm). Settings: Gly-Pro-pNA substrate (20 µL of 1.75 mM), 0.1 M Tris-HCl, 0.1 M NaCl, 1 mM EDTA, pH 8.0, 37 °C, 30 min.
T1 construct: gene DPP4; commercial recombinant human enzyme from ProSpec (Rehovot, Israel)
T1 sequence (P27487 29-766 limits assumed): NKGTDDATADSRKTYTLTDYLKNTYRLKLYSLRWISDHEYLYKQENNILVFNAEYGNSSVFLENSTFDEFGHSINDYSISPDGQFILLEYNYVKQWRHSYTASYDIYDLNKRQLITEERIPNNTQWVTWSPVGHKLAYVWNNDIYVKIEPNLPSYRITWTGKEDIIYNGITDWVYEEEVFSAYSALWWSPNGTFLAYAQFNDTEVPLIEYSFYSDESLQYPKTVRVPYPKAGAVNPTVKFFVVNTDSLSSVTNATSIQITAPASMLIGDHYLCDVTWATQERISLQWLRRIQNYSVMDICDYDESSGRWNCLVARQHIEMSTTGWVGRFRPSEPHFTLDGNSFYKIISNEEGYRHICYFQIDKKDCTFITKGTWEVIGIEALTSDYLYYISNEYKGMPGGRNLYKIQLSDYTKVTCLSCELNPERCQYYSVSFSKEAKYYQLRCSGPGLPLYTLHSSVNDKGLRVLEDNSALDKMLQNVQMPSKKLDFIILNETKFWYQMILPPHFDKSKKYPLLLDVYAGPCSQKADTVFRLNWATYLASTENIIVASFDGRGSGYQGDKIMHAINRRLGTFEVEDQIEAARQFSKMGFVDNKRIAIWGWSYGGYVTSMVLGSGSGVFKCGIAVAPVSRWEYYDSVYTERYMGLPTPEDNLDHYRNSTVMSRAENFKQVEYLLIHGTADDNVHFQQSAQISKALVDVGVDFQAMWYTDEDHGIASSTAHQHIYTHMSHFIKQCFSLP
Type: biochemical
`O=C(O)C1=CO[C@@H](O[C@@H]2O[C@H](CO)[C@@H](O)[C@H](O)[C@H]2O)[C@@H]2C(CO)=C[C@@H](O)[C@H]12` [compound 3, scandoside] was tested, and the “% inhibition at 1 mM” value was “the six GJE compounds inhibited the activity of DPP-IV”.
In the case of `O=C(O)C1=CO[C@@H](O[C@@H]2O[C@H](CO)[C@@H](O)[C@H](O)[C@H]2O)[C@@H]2C(CO)=CC[C@H]12` [compound 4, geniposidic acid], the “% inhibition at 1 mM” value is reported as “the six GJE compounds inhibited the activity of DPP-IV”.
With `COC(=O)C1=CO[C@@H](O[C@@H]2O[C@H](CO)[C@@H](O)[C@H](O)[C@H]2O)[C@H]2[C@@H]1[C@H](O)C[C@]2(C)O` [compound 5, shanzhiside methyl ester] the “% inhibition at 1 mM” value was “the six GJE compounds inhibited the activity of DPP-IV”.
In the case of `C[C@]1(O)C[C@@H](O)[C@@H]2C(C(=O)O)=CO[C@@H](O[C@@H]3O[C@H](CO)[C@@H](O)[C@H](O)[C@H]3O)[C@@H]21` [compound 6, shanzhiside], the “% inhibition at 1 mM” value is reported as “the six GJE compounds inhibited the activity of DPP-IV”.
